According to patent US20020022659A1, “Crystalline and salt forms of an HIV protease inhibitor” (priority 2000, published 2002):
≈ marks a conversion by molar mass, not a printed value.

Columns and labels:
[1] = Polymorphic relationship of the mono-methane sulfonate forms (relative stability); format: physicochemical; settings: anhydrous monotropic polymorphs of the mono-methane sulfonate; between 20° C. and 206° C.
Description: Form I and Form II are anhydrous monotropic polymorphs. […] Form II, the higher melting form, can be formed directly from crystallization as described above, while Form I can be synthesized using ethyl acetate followed by drying. However, the crystal packing of the ethyl acetate solvate and Form I are distinct from each other confirming that Form I is an actual anhydrous form.

HIV-1 (RF) = assay: HIV RNA assay, microplate based compound evaluation in HIV-1 infected MT-2 cells; format: cell-based; settings: Human immunodeficiency virus 1, MT2, 72 h; HIV-1 (RF) infected MT-2 cells, 3 days of culture; virus dilutions selected to give this value (inoculum standardisation); read-out: IC90 value (concentration of compound required to reduce the HIV RNA level by 90%)
Procedure: DNA Plasmids and in vitro RNA Transcripts:
Plasmid pDAB 72 containing both gag and pol sequences of BH10 (bp 113-1816) cloned into PTZ 19R was prepared according to Erickson-Viitanen et al. AIDS Research and Human Retroviruses 1989, 5, 577. The plasmid was linearized with Bam HI prior to the generation of in vitro RNA transcripts using the Riboprobe Gemini system II kit (Promega) with T7 RNA polymerase. Synthesized RNA was purified by treatment with RNase free DNAse (Promega), phenol-chloroform extraction, and ethanol precipitation. RNA transcripts were dissolved in water, and stored at −70° C. The concentration of RNA was determined from the A260.
Biotinylated capture probes were purified by HPLC after synthesis on an Applied Biosystems (Foster City, Calif.) DNA synthesizer by addition of biotin to the 5′ terminal end of the oligonucleotide, using the biotin-phosphoramidite reagent of Cocuzza, Tet. Lett. 1989, 30, 6287. […]
MT-2 and MT-4 cells were maintained in RPMI 1640 supplemented with 5% fetal calf serum (FCS) for MT-2 cells or 10% FCS for MT-4 cells, 2 mM L-glutamine and 50 μg/mL gentamycin, all from Gibco. […] Infectious titers of HIV-1(RF) stocks were 1-3×10^7 PFU (plaque forming units)/mL as measured by plaque assay on MT-2 cells (see below). […]

HIV protease = HIV protease (Human immunodeficiency virus type 1 group M subtype B, UniProt P04585); assay: HIV protease inhibition (stated as tested, no method given); format: biochemical

**Q.** With `CC(C)CN(C[C@@H](O)[C@H](Cc1ccccc1)NC(=O)[C@@H](NC(=O)CNCc1cccc(F)c1)C(C)(C)C)S(=O)(=O)c1cccc(N)c1` [Form II] as the compound, how does the “Relative stability of polymorphs” value [1] read?
**A.** Its value is “more stable than Form I”.

**Q.** For `Nc1ccn([C@H]2CC[C@@H](CO)O2)c(=O)n1` [ddC, dideoxycytidine], which IC90 (HIV-1 (RF)) is on record?
**A.** Its IC90 is 0.2 µg/mL (≈ 0.947 µM).

**Q.** Which “HIV protease inhibitor activity” value (HIV protease) does the source give for `CC(C)CN(C[C@@H](O)[C@H](Cc1ccccc1)NC(=O)[C@@H](NC(=O)CNCc1cccc(F)c1)C(C)(C)C)S(=O)(=O)c1cccc(N)c1` [Compound A] here?
**A.** Its value is “potent HIV protease inhibitor”.
